{
  "source": "patent US6664241B2",
  "about": "“Water-soluble amide derivatives of polyene macrolides and preparation and uses thereof” (Micrologix Biotech Inc., priority 2000, dated 2003)",
  "key": {"[1]": {"experiment": "Two week range-finding toxicity study in mice", "assay_type": "in vivo, CD-1 mice", "settings": "both sexes, CD-1, mouse, in vivo, iv, intravenous once daily on days 1 to 5 and 8 to 12", "procedure": "(§1) A variety of the compounds synthesized as described in Section 5, supra, were tested in various in vivo assays, as described below. The results of the various assays are provided in TABLE 3, presented at the end of this section. In all of the in vivo assays described, the test compounds, in the form of the aspartate salts, were formulated in an aqueous vehicle (5% mannitol in sterile water; OSMITROL, Baxter Healthcare, Deerfield, Ill.), followed by appropriate dilutions. The formulations were prepared fresh before dosing.\n(§2) AmB and AME were also tested for comparison. For AmB, the commercially available FUNGIZONE (Bristol-Meyers Squibb Co.) was used. Reported values are based upon the weight of the AmB active ingredient, not on the basis of the weight of the FUNGIZONE powder. AME was formulated in OSMITROL as described for the test compounds.\nVarious polyene macrolide amide derivatives of the invention were evaluated to characterize their potential toxicity when administered subchronically by intravenous injection.\nCD-1® mice (Charles River Laboratories, Portage, Mich.) were acclimated to laboratory conditions for at least 5 days before the start of dosing. During the acclimation period, the general condition of the mice was evaluated, and those considered healthy were used. The mice were randomly assigned to treatment groups using a stratified body weight regimen. Each treatment group consisted of 3 male and 3 female mice. The mice were housed in a room with a controlled environment and provided rodent chow and water ad libitum.\nOn the first day of dosing, the mice were approximately 7 to 9 weeks old and weighed 22 to 30 g. Doses were administered by intravenous injection once daily on study days 1 to 5 and 8 to 12. Dosages were selected based upon data from efficacy and toxicology studies, and ranged from 1.25 to 30 mg/kg/day. Clinical observations were recorded 0.5 hr after dosing on days 1, 3, 5, 8, 10, 12 and 15, and on any day a change was observed. Body weights were recorded prior to dosing and on study days 8 and 12, and on study day 15 at the completion of the in-life phase of the study.\nAnimals that were found in a moribund/deteriorating clinical state were euthanized (animal designated killed in extremis) by inhalation of CO2. The day of death for any animal found dead or killed in extremis was recorded. Any animal that died prematurely was removed from the study without further processing.\nOne day after completion of dosing (study day 16), all surviving mice were euthanized by inhalation of CO2. Their kidneys were preserved for histopathologic examination. The maximum no-observed-adverse-effect level (NOAEL) was determined on the basis of clinical and histopathologic findings. The values for AmB and AME are provided for comparison."}, "[2]": {"tested_on": "C. albicans", "experiment": "7 day kidney bioburden evaluation in neutropenic mice challenged with C. albicans", "assay_type": "in vivo, Swiss-Webster mice", "settings": "Candida albicans, ip, 168 h, intraperitoneally once daily for 7 days, 50% of animals with 2 log10 reduction in kidney CFU", "procedure": "as §1, §2\nVarious polyene macrolide amide derivatives of the invention were evaluated for their protective effect when administered intraperitoneally once daily for 7 days to neutropenic mice challenged with live C. albicans.\nSwiss-Webster mice (Simonsen Laboratories, Gilroy, Calif.) were made neutropenic by intravenous administration of 5-fluorouracil (150 mg/kg) on study day −1. On study day 0, all mice received by intravenous injection a single inoculum (0.2 mL) containing as estimated 5.0×10^4 CFU of C. albicans. The day of inoculation was designated as study day 0. Beginning the day after infection (on study day 1), mice were treated intraperitoneally with vehicle alone or formulated test compound, once daily for 7 consecutive days.\nThe mice were observed daily from study day 1 through study day 8 (1 day after the last dose). Mice found dead or euthanized in extremis were removed from the study without further processing. Surviving mice were euthanized by inhalation of CO2 on study day 8 and both kidneys from each mouse were removed. Each pair of removed kidneys was homogenized in 3 mL of ice-cold PBS containing 10% glycerol. A portion of each homogenate was used to determine log10 CFU per kidney using SDA plates (48 hours of incubation at 30° C.). Kidney log10 CFU data were analyzed using a t-test. The criterion for a statistically significant response was set at p<0.01.\nFor comparison, the results for AmB and AME are also provided. Efficacy was defined for individual animals as a greater than 2 log10 reduction in kidney CFU relative to the mean vehicle control value."}, "[3]": {"experiment": "Maximum non-lethal dose (NLD), single intravenous dose in mice", "assay_type": "in vivo, Swiss-Webster male mice", "settings": "test compounds as aspartate salts in 5% mannitol, AmB as FUNGIZONE", "in_short": "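Groups of four male Swiss-Webster mice received one intravenous dose of aspartate salt in 5% mannitol/water, freshly prepared. Doses were raised or lowered after each round until the maximum non-lethal dose was found.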"}, "[4]": {"experiment": "Ascending single-dose nephrotoxicity study in rabbits", "assay_type": "in vivo, Female New Zealand white rabbits", "settings": "female, New Zealand white, rabbit, in vivo, ascending single intravenous infusion doses, urine volume, BUN, creatinine, read-out: NOAEL acute rabbit", "procedure": "as §1\nAmB and AME were also tested for comparison. For AmB, the commercially available FUNGIZONE (Bristol-Meyers Squibb Co.) was used. […]\nVarious polyene macrolide amide derivatives of the invention were evaluated to determine the intravenous dose of administered compound that produces nephrotoxicity in rabbits. Nephrotoxicity was monitored by measuring urine volume and blood urine nitrogen (BUN) and creatinine. […]\nAscending single doses were administered by intravenous infusion into an ear vein at a rate of 0.6 mL/min. […] Body weights were recorded before each dose, as well as 2 days after the last dose. Blood samples were collected from the rabbits two days prior to the first dose (study day −2) and approximately 24 hr after each dose and analyzed for BUN and creatinine. […]"}},
  "note": "Read-outs that look alike come from different tables or passages of the source.",
  "data": [
    {"smiles": "C[C@@H]1[C@H](O)[C@@H](C)/C=C/C=C/C=C/C=C/C=C/C=C/C=C/[C@H](O[C@@H]2O[C@H](C)[C@@H](O)[C@H](N)[C@@H]2O)C[C@@H]2O[C@](O)(C[C@@H](O)C[C@@H](O)[C@H](O)CC[C@@H](O)C[C@@H](O)CC(=O)O[C@H]1C)C[C@H](O)[C@H]2C(=O)O", "note": "[AMB, amphotericin B, reference compound]", "values": [
      {"measurement": "NOAEL at 2 week", "setting": "[1]; clinical findings, read-out: NOAEL 2 week mice clinical", "value": 0.5, "unit": "mg/kg"},
      {"measurement": "NOAEL at 2 week", "setting": "[1]; histopathologic (kidney) findings, read-out: NOAEL 2 week mice histological", "value": 0.85, "unit": "mg/kg"},
      {"measurement": "ED50", "setting": "[2]", "value": 0.3, "unit": "mg/kg"},
      {"measurement": "NLD acute mice", "setting": "[3]", "value": 1.5, "unit": "mg/kg"},
      {"measurement": "NOAEL", "setting": "[4]", "value": 0.375, "unit": "mg/kg"}
    ]}
  ]
}
